Consider 35 molecules from patent US11008325B2, “Inhibitors of cancer invasion, attachment, and/or metastasis” (VIRGINIA COMMONWEALTH UNIVERSITY, priority 2016, dated 2021).

Like-named read-outs stand apart in the source and are kept apart here.

A word on the Kd: it is the equilibrium constant for the complex coming apart.

The subject of one assay is human cancer cell lines. Particulars: cited from earlier work.
The next assay deals with mouse xenograft model. Particulars: in vivo; cited from earlier work.
For assay [1], the target named is T1, MDA-9 PDZ12 tandem domain (PDZ1) (Homo sapiens, UniProt O00560).
T1 construct: the MDA-9/Syntenin construct used for the screen contains both PDZ domains; made in house
T1 sequence (O00560 110-274): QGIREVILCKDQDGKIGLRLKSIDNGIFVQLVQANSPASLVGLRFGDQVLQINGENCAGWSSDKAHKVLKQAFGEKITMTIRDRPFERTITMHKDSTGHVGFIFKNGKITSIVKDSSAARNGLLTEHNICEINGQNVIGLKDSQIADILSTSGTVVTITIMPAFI
The experiment in a line: NMR [15N,1H] HSQC chemical shift change and titration binding. Particulars: for Binding affinity ranking: chemical shift change (DPPM) of backbone amide of residue 147, 50 μM PDZ12, compound at 1:1 molar ratio. Here is the method: FIGS. 4A-4E. FIG. 4A. […] FIG. 4B. Superposition of 2D [^15N, ^1H]-HSQC spectra of 50 μM MDA-9 PDZ12 tandem domain in the absence and presence of 350 μM 113B7. FIG. 4C. Binding curve and representative spectra for the titration of 113B7 against MDA-9 PDZ12 tandem domain. Top: Zoom of box region in FIG. 4B after titrating 113B7 into Mda9 PDZ, tandem domain. […] Bottom: Titration curve of 113B7 for residue A147. […] FIG. 4D. […] FIG. 4E. Docked structure of 113B7 in complex with MDA-9 PDZ tandem domain (PDB: 1W9E). The pose was obtained with GOLD. Two PDZ domains of MDA-9 are labeled.
NMR based screening of an house assembled fragment library of about 5,000 compounds using [^15N,^1H] […] The proposed docked structure of PDZ1i in the PDZ1 domain and interdomain of MDA-9/Syntenin is shown in FIGS. 4A-4E and FIG. 5, while the chemical structure of PDZ1i is also shown in FIGS. 4A-4E and FIG. 5.
In all binding assays, the MDA-9/Syntenin construct used for the screen contains both PDZ domains. Constructs uniformly labeled with ^15N and ^13C or ^13C-Met selectively labeled are used for binding, mapping and structural studies. These same proteins are used for ITC binding studies.

A further assay in a line: migration (SAR, Table 4). The class given is cell-based.
The test system of assay [2] is Dishevelled PDZ/Fz7 Wnt receptor. Conditions: Xenopus embryos; cited from earlier work.
Where [3] appears, read: NMR titration following backbone amide of residue 147, read-out: Kd values.

As for `CCCCC(O)C1Nc2cc(C)c(C(=O)O)cc2C1CCc1ccccc1` (stereo not shown), in the assay on human cancer cell lines, the apoptosis result is listed as “Induction of apoptosis in human cancer cell lines”. Further, the tumor growth result in the assay with mouse xenograft model is “tumor growth inhibition in a mouse xenograft model”.

With `Cc1cc(=O)n2nc(COc3ccccc3)nc2[nH]1` [30A9], the Kd in assay [1] (setting [3]) stood at 197 µM. Also, in assay [1], the Binding affinity ranking is 4 (4 for DPPM 0.06-0.08).

For `Cc1cc(=O)n2nc(C(=O)Nc3ccc(O)cc3)nc2[nH]1` [112D11], in assay [1] (setting [3]), the Kd was 245 µM. Also, the Binding affinity ranking in assay [1] is reported as 2 (2 for DPPM 0.02-0.04).

As for `Cc1cc(=O)n2nc(C(=O)Nc3ccc(N)cc3)nc2[nH]1` [112E7], the dissociation constant (Kd) in assay [1] (setting [3]) is 944 µM. For the same molecule, in assay [1], the Binding affinity ranking is listed as 1 (1 for DPPM 0.00-0.02).

Consider `O=C(Nc1ccc(O)cc1)c1nc2[nH]c3c(c(=O)n2n1)CCC3` [112E12], for which, in assay [1] (setting [3]), the equilibrium dissociation constant (Kd) turned out to be 1610 µM. Further, the Binding affinity ranking in assay [1] is listed as 1 (1 for DPPM 0.00-0.02).

For `Cc1cc(O)n2nc(C(=O)Nc3ccc(O)cc3)nc2n1` [112F1], the Binding affinity ranking in assay [1] is 1 (1 for DPPM 0.00-0.02).

With `O=C(Nc1ccc(O)c(Cl)c1)c1nc2[nH]c3c(c(=O)n2n1)CCC3` [112F10], the Binding affinity ranking in assay [1] is given as 4 (4 for DPPM 0.06-0.08).

As to `O=C(Nc1cc(Cl)c(O)c(Cl)c1)c1nc2[nH]c3c(c(=O)n2n1)CCC3` [112F11], the Binding affinity ranking in assay [1] is reported as 5 (5 for DPPM 0.08-0.1).

For the molecule `O=C(Nc1ccc(O)c(F)c1)c1nc2[nH]c3c(c(=O)n2n1)CCC3` [112F12], the Kd in assay [1] (setting [3]) is 166 µM. For the same molecule, the Binding affinity ranking in assay [1] was 2 (2 for DPPM 0.02-0.04).

As to `Cc1cc(=O)n2nc(C(=O)Nc3cc(Cl)c(O)c(Cl)c3)nc2[nH]1` [112G1], in assay [1] (setting [3]), the dissociation constant Kd stood at 57.3 µM. The Binding affinity ranking in assay [1] was 6 (6 for DPPM above 0.1).

Turning to `Cc1cc(=O)n2nc(C(=O)Nc3ccc(O)c(F)c3)nc2[nH]1` [112G2], in assay [1] (setting [3]), the Kd worked out at 147 µM. Moreover, in assay [1], the Binding affinity ranking is reported as 4 (4 for DPPM 0.06-0.08).

For `O=C(Nc1ccc(O)c(Cl)c1)c1nc2[nH]c3c(c(=O)n2n1)CCC3` [112G3], in assay [1] (setting [3]), the Kd is 119 µM.

As for `Cc1cc(=O)n2nc(C(=O)Nc3cc(Cl)c(N)cc3Cl)nc2[nH]1` [112G4], the dissociation constant (Kd) in assay [1] (setting [3]) was 34.3 µM; in assay [1] (fragment hits, FIG. 55B, read-out: Kd), ~300 µM. Further, the Binding affinity ranking in assay [1] is 6 (6 for DPPM above 0.1).

As to `Nc1ccc(NC(=O)c2nc3[nH]c4c(c(=O)n3n2)CCC4)cc1` [112G11], the Kd in assay [1] (setting [3]) was 263 µM. In addition, the Binding affinity ranking in assay [1] was 2 (2 for DPPM 0.02-0.04).

As to `Cc1cc(NC(=O)c2nc3[nH]c4c(c(=O)n3n2)CCC4)c(C)cc1NC(=O)CCc1nnc(-c2cccc(C(F)(F)F)c2)o1` [112H9], the Kd in assay [1] (setting [3]) was 38.3 µM; in assay [1] (estimated by NMR titration in 2D HSQC experiments (Table 4), read-out: Kd) it was 38 µM. Also, in assay [1], the Binding affinity ranking is listed as 2 (2 for DPPM 0.02-0.04). The “% migr.” value in the assay “migration (SAR, Table 4)” came out at 24%.

On to `Cc1c(C)c(NC(=O)c2nc3[nH]c4c(c(=O)n3n2)CCC4)c(C)c(C)c1N` [113B8], for which the Kd in assay [1] (setting [3]) came to 151 µM. Further, in assay [1], the Binding affinity ranking is 5 (5 for DPPM 0.08-0.1).

Turning to `Cc1cc(NC(=O)c2nc3[nH]c4c(c(=O)n3n2)CCC4)c(C)cc1NC(=O)Cc1ccc(-c2ccccc2)cc1` [113B9], in assay [1], the Binding affinity ranking entry was “N.B”.

Turning to `Cc1cc(NC(=O)c2nc3[nH]c4c(c(=O)n3n2)CCC4)c(C)cc1NC(=O)CCc1nnc(-c2ccsc2)o1` [113B11], the Binding affinity ranking in assay [1] is 3 (3 for DPPM 0.04-0.06).

As to `COc1ccc(Br)c(-c2nnc(CCC(=O)Nc3cc(C)c(NC(=O)c4nc5[nH]c6c(c(=O)n5n4)CCC6)cc3C)o2)c1` [113B12], the Binding affinity ranking in assay [1] is listed as 1 (1 for DPPM 0.00-0.02).

Regarding `CC(NC(=O)C(OC(=O)C(C)NC(=O)OC(C)(C)C)C(C)C)C(=O)OC(C(=O)O)C(C)C` (stereo not shown) [NSC-668036], in assay [2], the “Wnt3A-induced canonical Wnt signaling” value was “In Xenopus embryos, NSC-668036 inhibits the canonical Wnt signaling induced by Wnt3A (34)”.

Take `Cc1cc(=O)n2nc(NCc3ccccc3)nc2[nH]1` [cmpd1]: in assay [1], the Binding affinity ranking is 2 (2 for DPPM 0.02-0.04).

For the molecule `Cc1cc(=O)n2nc(CCc3ccccc3)nc2[nH]1` [cmpd2], in assay [1], the Binding affinity ranking is given as 3 (3 for DPPM 0.04-0.06).

As for `O=c1c2c([nH]c3nc(NCc4cccs4)nn13)CCC2` [cmpd3], the Binding affinity ranking in assay [1] was 1 (1 for DPPM 0.00-0.02).

`Cc1cc(=O)n2nc(SCc3ccccc3)nc2[nH]1` [cmpd4]: in assay [1], the Binding affinity ranking is listed as 4 (4 for DPPM 0.06-0.08).

`Cc1[nH]c2nc(C(=O)NCc3ccccc3)nn2c(=O)c1C` [cmpd5]: the Binding affinity ranking in assay [1] is given as 2 (2 for DPPM 0.02-0.04).

In the case of `O=c1[nH]c2sc3c(c2c2ncnn12)CCCC3` [cmpd6], the Binding affinity ranking in assay [1] was 1 (1 for DPPM 0.00-0.02).

Take `Cc1cc(=O)n2nc(C(=O)Nc3ccc4c(c3)OCCO4)nc2[nH]1` [cmpd7]: the Binding affinity ranking in assay [1] is 2 (2 for DPPM 0.02-0.04).

Consider `COc1cccc(NC(=O)c2nc3[nH]c(C)cc(=O)n3n2)c1` [cmpd8], for which the Binding affinity ranking in assay [1] was 3 (3 for DPPM 0.04-0.06).

`Cc1cc(=O)n2nc(C(=O)Nc3ccc4c(c3)OCO4)nc2[nH]1` [cmpd9]: the Binding affinity ranking in assay [1] is 3 (3 for DPPM 0.04-0.06).

Turning to `Cc1cc(=O)n2nc(C(=O)Nc3cccc(Cl)c3)nc2[nH]1` [cmpd10], the Kd in assay [1] (setting [3]) is 151 µM. Further, the Binding affinity ranking in assay [1] was 4 (4 for DPPM 0.06-0.08).

On to `O=c1c2c([nH]c3nc(COc4ccccc4)nn13)CCC2` [cmpd11], for which the Kd in assay [1] (setting [3]) came to 171 µM. Further, the Binding affinity ranking in assay [1] was 5 (5 for DPPM 0.08-0.1).

For `O=c1c2c([nH]c3nc(CCc4ccccc4)nn13)CCC2` [cmpd13], the Binding affinity ranking in assay [1] is 3 (3 for DPPM 0.04-0.06).

For `CCCc1cc(=O)n2nc(COc3ccccc3)nc2[nH]1` [cmpd14], the Binding affinity ranking in assay [1] was 1 (1 for DPPM 0.00-0.02).

GSKTLQSWRRYH [Fz7 peptide]: in assay [2], the “Wnt3A-induced canonical Wnt signaling” value is “peptide attenuates Wnt3A-induced”.

Take SGKLKLMTTV [Dapper peptide]: the “Wnt3A-induced canonical Wnt signaling” value in assay [2] was “peptide attenuates Wnt3A-induced”.
